# Laboratory results published in patent publication US20230203098A1, “HUMAN TRANSFERRIN RECEPTOR BINDING PEPTIDE” (priority 2020, published 2023).
# Where two headings read alike, the source gives them in different places. Where a SMILES comes first, the peptide text is derived from it. Bridges are numbered along the chain shown (N, C = ends). [ ]: non-standard residue; d: D form. The star is where a group is joined. X2 = O=C(O)c1cc(C(=O)*)ccc1-c1c2ccc(=O)cc-2oc2cc(O)ccc12; PEG12 = NCCOCCOCCOCCOCCOCCOCCOCCOCCOCCOCCOCCOCCC(=O)O; NMePhe(3-Cl) = CN[C@@H](Cc1cccc(Cl)c1)C(=O)O; NMeW = CN[C@@H](Cc1c[nH]c2ccccc12)C(=O)O; Lys(N3) = [N-]=[N+]=NCCCC[C@H](N)C(=O)O; NMeY = CN[C@@H](Cc1ccc(O)cc1)C(=O)O; PEG4 = NCCOCCOCCOCCOCCC(=O)O; Abu = CC[C@H](N)C(=O)O
# Target: transferrin receptor (hTfR) (Homo sapiens, UniProt P02786)
# Assay: Intermolecular interaction evaluation test between transferrin receptor (hTfR) and peptide by surface plasmon resonance (SPR)
# Assay type: binding
# Experimental: For each of the various synthesized peptides, the intermolecular interaction of the peptide with the transferrin receptor (hTfR) was tested by surface plasmon resonance (SPR) according to the following method. The specific test method is as follows.
# An NTA sensor chip (Global Life Sciences Technologies Japan) was inserted in a Biacore T200 (Global Life Sciences Technologies Japan) and a prime operation was performed 3 times with a running buffer: 10 mM HEPES pH 8.0 (Nacalai Tesque), 150 mM NaCl (Nacalai Tesque), 0.05% Tween 20 (Nacalai Tesque), 0.1% BSA (Sigma-Aldrich), 1.0% DMSO (FUJIFILM Wako Pure Chemical) to create an Equilibration state at a flow rate of 30 µL/min. After reacting with 350 mM EDTA solution for 60 seconds at a flow rate of 10 µL/min then reacting with 0.5 mM NiCl2 solution (Kishida Chemical) for 60 seconds at a flow rate of 10 µL/min, the NTA sensor chip was washed with 3 mM EDTA solution (Nacalai Tesque) for 60 seconds at a flow rate of 10 µL/min. After mixing 50 µL each of 60 mM EDC solution (Global Life Sciences Technologies Japan) and 650 mM NHS solution (Global Life Sciences Technologies Japan), the mixture was reacted for 420 seconds at a flow rate of 10 µL/min. By diluting with the running buffer, 150 µL of 3.2 µM hTfR solution was prepared and used for reaction for 600 seconds at a flow rate of 10 µL/min, thereby immobilizing hTfR on the NTA sensor chip. After immobilization, capping was performed by reacting with 1.0 M ethanolamine aqueous solution (Global Life Sciences Technologies Japan) for 420 seconds at a flow rate of 10 µL/min. A peptide dissolution liquid prepared to 10 mM in the DMSO solution was diluted with the running buffer to a final concentration of 10 µM so as to become the peptide dissolution liquid, then peptide solutions of 100 nM, 50 nM, 25 nM, 10 nM and 5 nM were prepared. Kinetics of the peptide to hTfR was acquired by SPR measurement using the above-mentioned samples. Single-cycle kinetics was used as a kinetic evaluation model and curve fitting was performed using Biacore T200 Evaluation Software Version 3.0 (Global Life Sciences Technologies Japan). An obtained sensorgram was subjected to curve fitting using the least-squares method, and the binding of the peptide to hTfR was evaluated by obtaining KD values. […] A chemical structure of hTfR No. 894 is as follows.
# The variant peptides were synthesized according to Example 1 unless otherwise stated in Example 9 or 10. The linker-added peptides were synthesized according to Example 1, except that Fmoc-NH-SAL-PEG resin (Watanabe Chemical Industries) was used as a resin for the peptide synthesis when the linker was PEG. The peptide, to which a peptide, a fatty acid, PEG, or a conjugate thereof is added as a linker, was also synthesized according to Example 1, unless otherwise stated in Example 9 or 10.
# [1] = SPR, peptides, linker-added peptides and FITC conjugates, Patent ID 203-230, read-out: KD
# [2] = surface plasmon resonance, hTfR, read-out: KD value for hTfR by SPR (class symbol)
# Sequence of transferrin receptor (hTfR) (P02786 whole entry): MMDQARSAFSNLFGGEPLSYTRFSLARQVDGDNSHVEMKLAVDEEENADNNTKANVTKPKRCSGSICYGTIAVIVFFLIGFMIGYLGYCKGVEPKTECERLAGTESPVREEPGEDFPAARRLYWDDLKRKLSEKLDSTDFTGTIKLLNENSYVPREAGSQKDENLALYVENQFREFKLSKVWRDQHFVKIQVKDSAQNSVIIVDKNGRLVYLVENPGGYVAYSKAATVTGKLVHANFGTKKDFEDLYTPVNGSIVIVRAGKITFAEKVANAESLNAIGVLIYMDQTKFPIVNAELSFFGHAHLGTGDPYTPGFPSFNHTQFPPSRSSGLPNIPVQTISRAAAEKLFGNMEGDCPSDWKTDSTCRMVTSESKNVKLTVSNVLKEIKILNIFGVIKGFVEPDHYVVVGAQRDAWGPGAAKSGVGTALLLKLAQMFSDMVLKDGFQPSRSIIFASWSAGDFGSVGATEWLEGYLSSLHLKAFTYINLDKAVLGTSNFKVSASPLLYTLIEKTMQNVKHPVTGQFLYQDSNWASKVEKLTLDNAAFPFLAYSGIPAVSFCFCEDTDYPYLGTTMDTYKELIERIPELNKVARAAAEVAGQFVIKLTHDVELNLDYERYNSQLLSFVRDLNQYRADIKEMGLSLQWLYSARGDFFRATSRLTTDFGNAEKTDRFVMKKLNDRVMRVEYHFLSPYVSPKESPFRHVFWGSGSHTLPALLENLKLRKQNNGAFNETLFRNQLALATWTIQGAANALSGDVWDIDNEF
structure (smiles),measurement,setting,value
CC[C@H](C)[C@@H]1NC(=O)[C@H](Cc2ccc(OC)cc2)NC(=O)[C@H](Cc2ccc(O)cc2)NC(=O)[C@H](CC(N)=O)NC(=O)[C@H](Cc2c[nH]c3ccccc23)N(C)C(=O)[C@H](C(C)C)NC(=O)[C@H](Cc2cccc(Cl)c2)N(C)C(=O)[C@H](CCC(=O)O)NC(=O)[C@H](C)NC(=O)CSC[C@@H](C(N)=O)NC(=O)[C@H](CCCNC(=N)N)NC(=O)[C@H](Cc2ccccc2)NC(=O)[C@H](CCCNC(=N)N)NC(=O)[C@H](CC(=O)O)NC(=O)[C@H]([C@@H](C)CC)NC1=O [compound 227] ({CH2CO}-AE[NMePhe(3-Cl)]V[NMeW]NYY(Me)IIDRFRC-NH2; thioether N-15),Kd,[1],1 to 100 nM
CC[C@H](C)[C@@H]1NC(=O)[C@H](Cc2ccc(OC)cc2)NC(=O)[C@H](Cc2ccc(O)cc2)NC(=O)[C@H](CC(N)=O)NC(=O)[C@H](Cc2c[nH]c3ccccc23)N(C)C(=O)[C@H](C(C)C)NC(=O)[C@H](Cc2cccc(C(=O)O)c2)N(C)C(=O)[C@H](C(C)C)NC(=O)[C@H](C)NC(=O)CSC[C@@H](C(N)=O)NC(=O)[C@H](Cc2ccc(O)cc2)N(C)C(=O)[C@H](Cc2ccccc2)NC(=O)[C@@H](CCCNC(=N)N)NC(=O)[C@H](CCCNC(=N)N)NC(=O)[C@H]([C@@H](C)CC)NC1=O [compound 452],Kd,"SPR, hTfR, class symbols A-D, read-out: KD",100 to 1000 nM
CC[C@H](C)[C@@H]1NC(=O)[C@H](Cc2ccc(OC)cc2)NC(=O)[C@H](Cc2ccc(O)cc2)NC(=O)[C@H](CC(N)=O)NC(=O)[C@H](Cc2c[nH]c3ccccc23)N(C)C(=O)[C@H](C(C)C)NC(=O)[C@H](Cc2cccc(Cl)c2)N(C)C(=O)[C@H](C(C)C)NC(=O)[C@H](C)NC(=O)CSC[C@@H](C(=O)NCCOCCOCCOCCOCCC(N)=O)NC(=O)[C@H](Cc2ccc(O)cc2)NC(=O)[C@H](Cc2ccccc2)NC(=O)[C@@H](CCCNC(=N)N)NC(=O)C(C)(C)NC(=O)[C@H]([C@@H](C)CC)NC1=O [compound 352],Kd,[2],1 to 100 nM
CC[C@H](C)[C@@H]1NC(=O)[C@H](Cc2ccc(O)cc2)NC(=O)[C@H](Cc2ccc(O)cc2)NC(=O)[C@H](CC(N)=O)NC(=O)[C@H](Cc2c[nH]c3ccccc23)NC(=O)[C@H](C(C)C)NC(=O)[C@H](Cc2ccccc2)N(C)C(=O)[C@H](C(C)C)NC(=O)[C@H](C)NC(=O)CSC[C@@H](C(=O)NCCOCCOCCOCCOCCOCCOCCOCCOCCOCCOCCOCCOCCC(N)=O)NC(=O)[C@H](Cc2ccc(O)cc2)N(C)C(=O)[C@H](Cc2ccc(O)cc2)NC(=O)[C@@H](CCCNC(=N)N)NC(=O)[C@H](CCCNC(=N)N)NC(=O)[C@H]([C@@H](C)CC)NC1=O [compound 116],Kd,"SPR, hTfR No. 894 variants with PEG12c linker (Table 2), read-out: KD",1 to 100 nM
CC[C@H](C)[C@@H]1NC(=O)[C@H](Cc2ccc(OC)cc2)NC(=O)[C@H](Cc2ccc(O)cc2)NC(=O)[C@H](CC(N)=O)NC(=O)[C@H](Cc2c[nH]c3ccccc23)N(C)C(=O)[C@H](C(C)C)NC(=O)[C@H](Cc2cccc(Cl)c2)N(C)C(=O)[C@H](C(C)C)NC(=O)[C@H](C)NC(=O)CSC[C@@H](C(=O)N[C@H](CCC(=O)O)C(N)=O)NC(=O)[C@H](Cc2ccc(O)cc2)N(C)C(=O)[C@H](Cc2ccccc2)NC(=O)[C@@H](CCCNC(=N)N)NC(=O)C(C)(C)NC(=O)[C@H]([C@@H](C)CC)NC1=O [compound 355],Kd,[2],100 to 1000 nM
CC[C@H](C)[C@@H]1NC(=O)[C@H](Cc2ccc(O)cc2)NC(=O)[C@H](Cc2ccc(O)cc2)NC(=O)[C@H](CC(N)=O)NC(=O)[C@H](Cc2c[nH]c3ccccc23)N(C)C(=O)[C@H](C(C)C)NC(=O)[C@H](Cc2ccccc2)NC(=O)[C@H](C(C)C)NC(=O)[C@H](C)NC(=O)CSC[C@@H](C(=O)NCC(=O)N[C@@H](CO)C(=O)N[C@@H](CO)C(=O)NCC(=O)N[C@@H](CO)C(=O)N[C@@H](CO)C(=O)N[C@@H](CCCCNC(=O)C2CCC(CN3C(=O)C=CC3=O)CC2)C(N)=O)NC(=O)[C@H](Cc2ccc(O)cc2)N(C)C(=O)[C@H](Cc2ccc(O)cc2)NC(=O)[C@H](CCCNC(=N)N)NC(=O)[C@H](CCCNC(=N)N)NC(=O)[C@H]([C@@H](C)CC)NC1=O (stereo partly drawn) [compound 197],Kd,"hTfR binding by SPR, hTfR No. 894 variant peptides, linker-added peptides and payload conjugates (Table 2), read-out: KD value obtained from the SPR measurement",1 to 100 nM
CC[C@H](C)[C@@H]1NC(=O)[C@H](Cc2ccc(OC)cc2)NC(=O)[C@H](Cc2ccc(O)cc2)NC(=O)[C@H](CC(N)=O)NC(=O)[C@H](Cc2c[nH]c3ccccc23)N(C)C(=O)[C@H](C(C)C)NC(=O)[C@H](Cc2cccc(Cl)c2)N(C)C(=O)[C@H](C(C)C)NC(=O)[C@H](C)NC(=O)CSC[C@@H](C(=O)NCC(=O)NCC(=O)N[C@@H](CO)C(=O)NCC(=O)N[C@@H](CO)C(=O)NCC(=O)N[C@@H](CCCCN=[N+]=[N-])C(N)=O)NC(=O)[C@H](Cc2ccc(O)cc2)N(C)C(=O)[C@H](Cc2ccccc2)NC(=O)[C@@H](CCCCN)NC(=O)[C@H](CCCNC(=N)N)NC(=O)[C@H]([C@@H](C)CC)NC1=O [compound 406] ({CH2CO}-AV[NMePhe(3-Cl)]V[NMeW]NYY(Me)IIR[dK]F[NMeY]CGGSGSG[Lys(N3)]-NH2; thioether N-15),Kd,[2],1 to 100 nM
CC[C@H](C)[C@@H]1NC(=O)[C@H](Cc2ccc(OC)cc2)NC(=O)[C@H](Cc2ccc(O)cc2)NC(=O)[C@H](CC(N)=O)NC(=O)[C@H](Cc2c[nH]c3ccccc23)N(C)C(=O)[C@H](C(C)C)NC(=O)[C@H](Cc2cccc(Cl)c2)N(C)C(=O)[C@H](C(C)C)NC(=O)[C@H](C)NC(=O)CSC[C@@H](C(=O)NCC(=O)NCC(=O)NCC(=O)NCC(=O)N[C@@H](CO)C(=O)N[C@@H](CO)C(=O)N[C@@H](CS)C(N)=O)NC(=O)[C@H](Cc2ccc(O)cc2)N(C)C(=O)[C@H](Cc2ccccc2)NC(=O)[C@@H](CCCNC(=N)N)NC(=O)[C@H](CCCNC(=N)N)NC(=O)[C@H]([C@@H](C)CC)NC1=O [compound 401],Kd,,1 to 100 nM
CC[C@H](C)[C@@H]1NC(=O)[C@H](Cc2ccc(O)cc2)NC(=O)[C@H](Cc2ccc(O)cc2)NC(=O)[C@H](CC(N)=O)NC(=O)[C@H](Cc2c[nH]c3ccccc23)N(C)C(=O)[C@H](C(C)C)NC(=O)[C@H](Cc2cc(Cl)cc(Cl)c2)N(C)C(=O)[C@H](C(C)C)NC(=O)[C@H](C)NC(=O)CSC[C@@H](C(N)=O)NC(=O)[C@H](Cc2ccc(O)cc2)N(C)C(=O)[C@H](Cc2ccccc2)NC(=O)[C@@H](CCCNC(=N)N)NC(=O)[C@H](CCCNC(=N)N)NC(=O)[C@H]([C@@H](C)CC)NC1=O [compound 302],Kd,"surface plasmon resonance, peptide vs hTfR, read-out: KD value, hTfR binding by SPR (class symbol)",1 to 100 nM
CC[C@H](C)[C@@H]1NC(=O)[C@H](Cc2ccc(OC)cc2)NC(=O)[C@H](Cc2ccc(O)cc2)NC(=O)[C@H](CC(N)=O)NC(=O)[C@H](Cc2c[nH]c3ccccc23)N(C)C(=O)[C@H](C(C)C)NC(=O)[C@H](Cc2cccc(Cl)c2)N(C)C(=O)[C@H](C(C)C)NC(=O)[C@H](C)NC(=O)CSC[C@@H](C(=O)N[C@H](CCC(=O)O)C(=O)N[C@H](CCC(=O)O)C(N)=O)NC(=O)[C@H](Cc2ccc(O)cc2)N(C)C(=O)[C@H](Cc2ccccc2)NC(=O)[C@@H](CCCNC(=N)N)NC(=O)C(C)(C)NC(=O)[C@H]([C@@H](C)CC)NC1=O [compound 356],Kd,[2],1 to 100 nM
CC[C@H](C)[C@@H]1NC(=O)[C@H](Cc2ccc(O)cc2)NC(=O)[C@H](Cc2ccc(O)cc2)NC(=O)[C@H](CC(N)=O)NC(=O)[C@H](Cc2c[nH]c3ccccc23)NC(=O)[C@H](C(C)C)NC(=O)[C@H](Cc2ccccc2)NC(=O)[C@H](C(C)C)NC(=O)[C@H](C)NC(=O)CSC[C@@H](C(=O)NCCOCCOCCOCCOCCOCCOCCOCCOCCOCCOCCOCCOCCC(=O)N[C@@H](CCCCNC(=O)c2ccc(-c3c4ccc(=O)cc-4oc4cc(O)ccc34)c(C(=O)O)c2)C(N)=O)NC(=O)[C@H](Cc2c[nH]cn2)NC(=O)[C@H](C(C)C)NC1=O [compound 204] ({CH2CO}-AVFVWNYYIVHC[PEG12]K(X2)-NH2; thioether N-12),Kd,[1],100 to 1000 nM
CC[C@@H]1NC(=O)[C@H]([C@@H](C)CC)NC(=O)[C@H]([C@@H](C)CC)NC(=O)[C@H](Cc2ccc(OC)cc2)NC(=O)[C@H](Cc2ccc(O)cc2)NC(=O)[C@H](CC(N)=O)NC(=O)[C@H](Cc2c[nH]c3ccccc23)N(C)C(=O)[C@H](C(C)C)NC(=O)[C@H](Cc2cccc(Cl)c2)N(C)C(=O)[C@H](C(C)C)NC(=O)[C@H](C)NC(=O)CSC[C@@H](C(=O)NCCOCCOCCOCCOCCC(N)=O)NC(=O)[C@H](Cc2ccc(O)cc2)N(C)C(=O)[C@H](Cc2ccccc2)NC(=O)[C@@H](CCCNC(=N)N)NC1=O [compound 359] ({CH2CO}-AV[NMePhe(3-Cl)]V[NMeW]NYY(Me)II[Abu][dR]F[NMeY]C[PEG4]-NH2; thioether N-15),Kd,[2],1 to 100 nM
